Measured values reported in PMC11089561, “Structural Investigations of Phthalazinone Derivatives as Allosteric Inhibitors of Human DNA Methyltransferase 3A” (ACS Medicinal Chemistry Letters, 2024).

Tests used:
[1] = parameters: method as in PMID 26935942; conditions: versus FDA-approved inhibitors (azacytidine and decitabine); cited from earlier work
[2] = molecular target: T1, DNMT3A_CD (catalytic domain of DNMT3A) (Homo sapiens, UniProt Q9Y6K1); assay: In vitro methylation assay, IC50 determination ([3H]-SAM, poly dI-dC); type: biochemical; conditions: 150 nM DNMT3A, 10 uM SAM, 10 uM poly dI-dC; 1 hour preincubation; Hill slope constrained to -2
T1 construct: The catalytic domain of DNMT3A (residues 634 -912) were used for all experiments; made in house; host or cells: E. coli NiCo21 (DE3) (NEB)
Protocol: Expression and Purification of DNMT3A_CD
The catalytic domain of DNMT3A (residues 634 -912) were used for all experiments […]
DNMT3A_CD was expressed in NiCo21 (DE3) cells (NEB) using a codon optimized plasmid pET28a-hDNMT3A_CD (∆1-611). Cell cultures were grown in LB medium at 37 °C to an OD600 = 0.8. Cultures were cooled to 25 °C, then expression was induced by the addition of 1 mM IPTG (Gold Biotechnology). Cells were harvested by centrifugation after 5 hours and flash frozen in liquid nitrogen for storage at -80 °C.
Cells were resuspended in lysis buffer containing 50 mM K2HPO4/KH2PO4, 500 mM NaCl, 50 mM imidazole, 10% glycerol [v/v], 1 mM EDTA and 1 mM PMSF at pH 7.8.
Sonication was used for lysis and the supernatant was collected after centrifugation at 18,000 x g for 1 hour. Lysates were applied to an ÄKTA start FPLC system (GE healthcare) and loaded onto a 1 mL HisTrap Excel column (Cytiva). The column was washed with 50 mL of lysis […]
(§1) buffer and eluted with an identical buffer containing a higher imidazole concentration of 500 mM. Eluted protein was desalted with a 5 mL HiTrap Desalting column (Cytiva) and flash frozen in liquid nitrogen for storage at -80 °C. DNMT3A_CD concentration was determined using UV-vis with an extinction coefficient determined by protparam of 38,180 M-1 cm-1 to represent the monomeric state.
(§2) In Vitro Methylation Assays
(§3) Methylation assays were used to determine nanomolar amounts of methylated DNA product. Reactions were carried out in 50 mM K2HPO4/KH2PO4 at pH 7.8, 1 mM EDTA, 1 mM DTT, 0.2 mg/mL BSA, 20 mM NaCl, 150 nM DNMT3A_CD, 10 uM poly dI-dC (Sigma Aldrich), and 10 uM SAM (Sigma Aldrich) unless otherwise stated. The SAM cofactor was diluted with [3H]-SAM from PerkinElmer in 10 mM H2SO4. All inhibitors were dissolved and diluted in DMSO prior to addition to methylation reactions. Reactions with and without […]
All reactions containing inhibitors were preincubated with DNMT3A and inhibitor for 1 hour. Reactions were activated with poly dI-dC to a final volume of 20 uL, then incubated at 37 °C for 1 hour. Reaction aliquots were spotted on Hybond-N+ membranes (GE healthcare), then washed with 50 mM K2HPO4/KH2PO4 at pH 7.8 and ethanol. Membranes were dried and counted using a Hidex LS 300 scintillation counter. […]
Determination of IC50 Value
Percent activity of methylation assays was determined by comparing activities of assays with inhibitor to assays without inhibitor. Sigmoidal dose-response curves of percent activity vs compound concentration were fitted in Prism 10.
All assays were performed in triplicate, with additional repetitions added as necessary. […]
14). Reactions consisted of 150 nM DNMT3A, 10 uM SAM, and 10 uM poly dI -dC. The data

[3] = system: acute myeloid leukemia cell; parameters: method as in PMID 35866897; conditions: cited from earlier work
[4] = molecular target: DNMT3A; parameters: method as in PMID 33705897; conditions: with SAM; read-out: Ki with S-adenosyl methionine (SAM, AdoMet); cited from earlier work
[5] = molecular target: T1, DNMT3A_CD (catalytic domain of DNMT3A); assay: Kinetics studies: methylation assays with varied SAM or poly dI-dC, fit to inhibition models; type: biochemical; conditions: for α coefficient from mixed-type inhibition model, varied SAM: SAM varied 0.15-10 uM, poly dI-dC 10 uM; for α coefficient from mixed-type inhibition model, varied SAM / α coefficient from mixed-type inhibition model, varied DNA: α < 1 = preference for enzyme-substrate complex; for α coefficient from mixed-type inhibition model, varied DNA: poly dI-dC varied 0.15-10 uM, SAM 10 uM; for Best fit inhibition model: with DNA and SAM varied, R2 comparison and F-test, p-value < 0.0001
Excerpt: Using methylation assays with and without inhibitor and varied concentrations of DNA or SAM, we generated nonlinear Michaelis–Menten curves with corresponding double-reciprocal plots (Figure S2) and fit them to classical inhibition models. […] By analyzing double-reciprocal plots, this mechanistic model was confirmed because the changes in y-intercept and slope are inconsistent with competitive and uncompetitive forms of inhibition, respectively. […] Furthermore, the selected analogs also bind more tightly to the enzyme–substrate complex than to the free enzyme with both DNA and SAM (Table S2). This preference could be beneficial since DNMT3A bound to DNA is likely the dominant species in a cellular context. […]
as §1, §2, §3
All reactions containing inhibitors were preincubated with DNMT3A and inhibitor for 1 hour. Reactions were activated with poly dI-dC to a final volume of 20 uL, then incubated at 37 °C for 1 hour. Reaction aliquots were spotted on Hybond-N+ membranes (GE healthcare), then washed with 50 mM K2HPO4/KH2PO4 at pH 7.8 and ethanol. Membranes were dried and counted using a Hidex LS 300 scintillation counter.
In vitro methylation assays were performed as described above using two concentrations of inhibitor (0 uM and ~IC50) and varied concentrations of substrate SAM or poly dI-dC while the other substrate is held at a saturating concentration of 10 uM. For the variation of SAM, concentrations of 0.15, 0.25, 0.5, 1, 3 and 10 uM were used, while for the variation of poly dI-dC concentrations of 0.15, 0.25, 0.5, 1, 2.5, and 10 uM were used. Data was fitted globally with Prism 10 and best-fit inhibition models were determined using an F-test (p < 0.0001).
Lineweaver-Burke plots were generated and fit to a linear regression model. Data represent the mean and standard deviation of three independent reactions. […]
Figure S2: Double reciprocal plots for 1a (A, B), 3 (C, D), 4 (E, F), 5 (G, H), and 10 (I, J) with DNA and SAM. The data points represent the mean and standard deviation of three independent reactions. Reactions were done at initial velocity conditions using 150 nM DNMT3A, and varied concentrations of one substrate (0.15 –10 uM) while the other was saturated at 10 uM. Linear fits […]
competitive inhibition and uncompetitive inhibition respectively.
(1 picture or pasted object on this page, not shown here) […]
coefficient is a measure of the inhibitor’s preference for E and ES kinetic species.
Table S1: Determination of best fit inhibition models for 1a, 3, 4, 5, and 10 by R2 comparison […]
Most of the inhibitors have α < 1, where the inhibitor prefers the enzyme-substrate complex. […]

T1 sequence (Q9Y6K1 634-912): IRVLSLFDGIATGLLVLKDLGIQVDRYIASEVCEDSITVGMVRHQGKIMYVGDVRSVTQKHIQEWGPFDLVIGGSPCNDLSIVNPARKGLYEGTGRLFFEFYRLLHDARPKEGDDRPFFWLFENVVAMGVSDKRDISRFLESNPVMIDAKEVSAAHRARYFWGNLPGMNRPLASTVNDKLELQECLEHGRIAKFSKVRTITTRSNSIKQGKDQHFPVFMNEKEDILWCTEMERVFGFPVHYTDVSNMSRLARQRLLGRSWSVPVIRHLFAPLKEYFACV

Question: Which Cytotoxicity [1] does the source give for `COc1ccc(C2=NN(C3CCCCCC3)C(=O)[C@@H]3CC=CC[C@H]23)cc1OCCCCOc1ccc(-c2nnn[nH]2)cc1` [Compound 1a] here?
Answer: Its Cytotoxicity is “significantly less cytotoxic than FDA-approved inhibitors”.

Question: What about the IC50 [2] of the same molecule?
Answer: The IC50 was 14 ± 2 µM.

Question: What about the AML cell differentiation [3] of the same molecule?
Answer: Its AML cell differentiation is “induce acute myeloid leukemia cell differentiation”.

Question: And the Ki [4]?
Answer: Its Ki is 9.16 to 18.9 µM.

Question: And the “α coefficient from mixed-type inhibition model, varied SAM” value [5]?
Answer: Its value is under 1.

Question: And the “α coefficient from mixed-type inhibition model, varied DNA” value [5]?
Answer: The value was under 1.

Question: And the “Best fit inhibition model” value [5]?
Answer: The value was “mixed-type inhibition model”.

Question: For `COc1ccc(C2=NN(C3CCCCCC3)C(=O)C2(C)C)cc1OCCCCOc1ccc(-c2nnn[nH]2)cc1` [Compound 1b], which Cytotoxicity [1] is on record?
Answer: Its Cytotoxicity is “significantly less cytotoxic than FDA-approved inhibitors”.

Question: What about the AML cell differentiation [3] of the same molecule?
Answer: Its AML cell differentiation is “induce acute myeloid leukemia cell differentiation”.

Question: What about the Ki [4] of the same molecule?
Answer: The Ki was 3.7 to 7.06 µM.

Question: Which IC50 [2] does the source give for `COc1ccc(C2=NN(C3CCCCCC3)C(=O)[C@@H]3CC=CC[C@H]23)cc1OCCCCOc1ccc(C#N)cc1` [Compound 2] here?
Answer: The IC50 was over 300 µM.

Question: For `COc1ccc(C2=NN(C3CCCCCC3)C(=O)[C@@H]3CC=CC[C@H]23)cc1OCCCCOc1ccc(C(=O)O)cc1` [Compound 3], which IC50 [2] is on record?
Answer: The IC50 was 23 µM.

Question: And the “α coefficient from mixed-type inhibition model, varied DNA” value [5]?
Answer: Its value is over 1.

Question: What about the “Best fit inhibition model” value [5] of the same molecule?
Answer: The value was “mixed-type inhibition model”.

Question: What does the source list for `O=C1[C@@H]2CC=CC[C@@H]2C(c2cccc(OCCCCOc3ccc(-c4nn[nH]n4)cc3)c2)=NN1C1CCCCCC1` [Compound 4]?
Answer: IC50 [2]: 10 µM; Best fit inhibition model [5]: mixed-type inhibition model

Question: With `CN1N=C(c2cccc(OCCCCOc3ccc(-c4nn[nH]n4)cc3)c2)[C@H]2CC=CC[C@H]2C1=O` [Compound 5] as the molecule, how does the IC50 [2] read?
Answer: The IC50 was 41 µM.

Question: What about the “Best fit inhibition model” value [5] of the same molecule?
Answer: The value was “mixed-type inhibition model”.

Question: With `O=C1[C@@H]2CC=CC[C@@H]2C(c2cccc(OCCCCOc3ccc(-c4nn[nH]n4)cc3)c2)=NN1Cc1ccccc1` [Compound 6] as the molecule, how does the IC50 [2] read?
Answer: The IC50 was 13 µM.

Question: With `O=C1[C@@H]2CC=CC[C@@H]2C(c2cccc(OCCCCOc3ccc(-c4nn[nH]n4)cc3)c2)=NN1Cc1ccc(F)c(F)c1` [Compound 7] as the molecule, how does the IC50 [2] read?
Answer: Its IC50 is 18 µM.

Question: Which IC50 [2] does the source give for `O=C1[C@@H]2CC=CC[C@@H]2C(c2cccc(OCCCOc3ccc(-c4nn[nH]n4)cc3)c2)=NN1C1CCCCCC1` [Compound 8] here?
Answer: Its IC50 is 11 µM.

Question: For `O=C1[C@@H]2CC=CC[C@@H]2C(c2cccc(OCCCCCOc3ccc(-c4nn[nH]n4)cc3)c2)=NN1C1CCCCCC1` [Compound 9], which IC50 [2] is on record?
Answer: Its IC50 is 9 µM.

Question: For `O=C1[C@@H]2CC=CC[C@@H]2C(c2cccc(OC/C=C\COc3ccc(-c4nn[nH]n4)cc3)c2)=NN1C1CCCCCC1` [Compound 10], which IC50 [2] is on record?
Answer: Its IC50 is 11 µM.

Question: And the “α coefficient from mixed-type inhibition model, varied SAM” value [5]?
Answer: The value was over 1.

Question: What about the “Best fit inhibition model” value [5] of the same molecule?
Answer: Its value is “mixed-type inhibition model”.

Question: With `O=C1[C@@H]2CC=CC[C@@H]2C(c2cccc(OC/C=C/COc3ccc(-c4nn[nH]n4)cc3)c2)=NN1C1CCCCCC1` [Compound 11] as the molecule, how does the IC50 [2] read?
Answer: The IC50 was 13 µM.

Question: With `O=C(COc1cccc(C2=NN(C3CCCCCC3)C(=O)[C@@H]3CC=CC[C@H]23)c1)Nc1ccc(-c2nn[nH]n2)cc1` [Compound 12] as the molecule, how does the IC50 [2] read?
Answer: Its IC50 is 38 µM.

Question: With `O=c1c2ccccc2c(-c2cccc(OCCCCOc3ccc(-c4nn[nH]n4)cc3)c2)nn1C1CCCCCC1` [Compound 13] as the molecule, how does the IC50 [2] read?
Answer: The IC50 was 13 µM.

Question: Which IC50 [2] does the source give for `c1ccc(OCCCCOc2ccc(-c3nn[nH]n3)cc2)cc1` [Compound 14] here?
Answer: The IC50 was over 100 µM.
